Assay results as given in patent publication US20250017874A1, “PHARMACEUTICAL COMPOSITIONS FOR USE IN REDUCING HYPERPIGMENTATION” (Caliway Biopharmaceuticals Co., Ltd., priority 2023, published 2025).
Where two headings read alike, the source gives them in different places.

Assays:
B16-F10 cells [1] = experiment: In vitro efficacy comparison: melanin content, α-MSH 0.5 h then test article 30 h (Example 5); assay type: cell-based, mouse; conditions: for Melanin content (%) Mean: α-MSH 0.5 h then TA 30 h
Description: B16-F10 cells were seeded in a 96-well plate. Except the vehicle group, cells of the other groups were cultured in the presence of α-MSH for 0.5 hours first. The compositions for examination were then added to the culture medium and the cells were further cultured for 30 hours. The rest of the experimental conditions and procedures were similar to those described in Example 3. Afterwards, the cells were collected to evaluate the effect of 4-[(E)-2-(3,5-dihydroxyphenyl)ethenyl]benzene-1,3-diol compositions (IM01 Group) and Arbutin and 5-[(E)-2-(4-hydroxyphenyl)ethenyl]benzene-1,3-diol (IM00 Group) compositions on reducing melanin levels. The experimental design is summarized in Table 18 and results shown in both Table 18 and FIG. 5.

UVB-irradiated mice skin = experiment: In vivo efficacy: skin melanin after UVB irradiation, intradermal injection or topical administration (Example 4B/4C); conditions: for Melanin Mean ± SD (UVB group = 100.0): treatment period 3 weeks
Excerpt: The IM01 formulation was investigated for in vivo efficacy via intradermal injection, either twice a week (IM01-ID/L) or once a day (IM01-ID/H). [table] The IM01 formulation was investigated for in vivo efficacy via topical administration (IM01-T), following the study design provided in Table 16 below. [table]

B16-F10 cell line [2] = assay type: cell-based, mouse; conditions: for Relative cell viability (%): mouse
Excerpt: (§1) Table 23 below lists the study design for evaluating EC50 values of IM01, which contains 4-[(E)-2-(3,5-dihydroxyphenyl)ethenyl]benzene-1,3-diol.
(§2) Table 25 below lists the study design for evaluating EC50 values of IM01, which contains 4-[(E)-2-(3,5-dihydroxyphenyl)ethenyl]benzene-1,3-diol.

B16-F10 cells [3] = experiment: In vitro efficacy test: melanin content after α-MSH induction (Example 3); assay type: cell-based, mouse
Description: Alpha-melanocyte-stimulating hormone (α-MSH) is a peptide hormone capable of inducing melanin production. In this study, the effects of 4-[(E)-2-(3,5-dihydroxyphenyl)ethenyl]benzene-1,3-diol samples (having different concentrations of 4-[(E)-2-(3,5-dihydroxyphenyl)ethenyl]benzene-1,3-diol) on inhibition of melanin production were investigated.
B16-F10 cells were seeded in a 96-well plate at a density of 1×10^5 cells/well and cultured for 24 hours. The cells were then incubated with 0.1 μM α-MSH for 24 hours to include melanin production. The 4-[(E)-2-(3,5-dihydroxyphenyl)ethenyl]benzene-1,3-diol samples with different concentrations were then added to the cultured cells, which were cultured for an additional 24 hours. No α-MSH was used for the vehicle control group.
After the cells were washed once with 1 mL of 1×PBS, add 300 μL of 1×Trypsin-EDTA, they were placed in a 37° C. incubator for 5 minutes. Finally, 1 mL of DMEM was added to the cells, and the number of cells were counted by Trypan blue staining.
Cell suspension was centrifuged at 1500 g for 5 minutes at room temperature, followed by supernatant removal and air-dry of the pellet for 15 minutes. 1 N NaOH (containing 10% DMSO) was added to break up the pellet, followed by shaking by ultrasonic waves for 30 minutes and heating in a water bath at 80° C. for 1.5 hours. After cooling down, the suspension was taken and measured for absorbance at 405 nm. Results were calculated by deducting the reagent blank from the absorbance value at 405 nm and divided by the average absorbance value of the α-MSH Group.

B16-F10 cell line [4] = experiment: In vitro whitening efficacy: melanin content (Example 7); assay type: cell-based, mouse
Excerpt: as §1, §2

HRM-2 mice = experiment: In vivo efficacy: skin melanin content after UVB irradiation, different administration routes (Example 4A)
Excerpt: The experiment tested a total of 20 mice using conventional diets in the adaptation period, the induction period, and the test period. After 7 days of adaptation, the mice were randomly divided into a control group and a UVB-c group according to body weight and body weight changes, so that no statistical difference in average body weight and body weight changes were noticeable among the groups. The UVB-c group was subjected to 150 mJ/cm^2/day of UVB irradiation with a frequency of irradiating the back of the mice three times a week.
Injection frequency was once a week, three times in total, with an average injection area of 6 cm^2 skin each time. The IM01—Topical group and the color cream group were administered by smearing once a day for a total of 21 days. […] During the treatment period, the backs of the mice were irradiated with 150 mJ/cm^2/day of UVB three times a week until sacrificed. It should be noted that the timing of UVB exposure and drug administration were staggered.
After sacrificing the mice on day 22, the skin of treatment area was collected and subjected to heat extraction with 0.4 mL NaOH for 1 hour. […] The experimental data were expressed as mean±standard deviation (n=3-5), using Student's t-test analysis, #p<0.05, ##p<0.01 compared with control group; *p<0.05, **p<0.01 compared with UVB-c group.

B16-F10 cells [5] = experiment: In vitro melanin content versus arbutin and hydroquinone (Example 6); assay type: cell-based, mouse
Description: Except the vehicle group, cells of the other groups were cultured with α-MSH for 24 hours first. The compositions for investigation (see Tables 19 and 20) were then added to the culture medium and the cells were further cultured for 24 hours. The rest of the experimental operation process was similar to that described in Example 3. […] [table] [table]

[6] = IM01-ID/H: ID, 23 mg/mL, once a day
[7] = IM01-ID/L: ID, 23 mg/mL, twice a week
[8] = IM01-T: topical, 45 mg/mL, once a day

Oc1ccc(/C=C/c2cc(O)cc(O)c2)cc1 [IM00, 5-[(E)-2-(4-hydroxyphenyl)ethenyl]benzene-1,3-diol]
Melanin content (%) Mean (B16-F10 cells [1]; TA 87.62 μM (IM00-20)): 98.9%

Oc1cc(O)cc(/C=C/c2ccc(O)cc2O)c1 [IM01, 4-[(E)-2-(3,5-dihydroxyphenyl)ethenyl]benzene-1,3-diol]
Reduction of melanin production (UVB-irradiated mice skin; [6]): 23.1% | Melanin Mean ± SD (UVB group = 100.0) (UVB-irradiated mice skin; [6]): 76.9 ± 12.7 | Reduction of melanin production (UVB-irradiated mice skin; [7]): 13.9% | Melanin Mean ± SD (UVB group = 100.0) (UVB-irradiated mice skin; [7]): 86.1 ± 14.5 | Reduction of melanin production (UVB-irradiated mice skin; [8]): 21.4% | Melanin Mean ± SD (UVB group = 100.0) (UVB-irradiated mice skin; [8]): 79.6 ± 12.5 | Cytotoxicity (B16-F10 cell line [2]): low cytotoxicity | Relative cell viability (%) (B16-F10 cell line [2]; 8 μM): 98.4 ± 2.0% | Relative cell viability (%) (B16-F10 cell line [2]; 16 μM): 96.7 ± 2.4% | Relative cell viability (%) (B16-F10 cell line [2]; 32 μM): 98.7 ± 2.2% | Relative cell viability (%) (B16-F10 cell line [2]; 60 μM): 88.5 ± 1.4% | Relative cell viability (%) (B16-F10 cell line [2]; 64 μM): 93.0 ± 1.0% | Relative cell viability (%) (B16-F10 cell line [2]; 120 μM): 84.9 ± 0.4% | Relative cell viability (%) (B16-F10 cell line [2]; 128 μM): 89.8 ± 3.7% | Relative cell viability (%) (B16-F10 cell line [2]; 181 μM): 79.9 ± 5.6% | Relative cell viability (%) (B16-F10 cell line [2]; 256 μM): 74.6 ± 7.0% | Melanin production compared with vehicle group (without α-MSH) (B16-F10 cells [3]; IM01-C4, IM01-C5 and IM01-C6 groups (22.6, 32, 64 ppm)): lower than that of the vehicle group | EC50 (B16-F10 cells [3]; Mus musculus, B16-F10, printed as equal to 15.2 ppm): 62 µM | Melanin Content Inhibition Ability (%) Mean (B16-F10 cells [3]; TA 8 ppm (IM01-C1)): 20.1% | Melanin content (%) Mean (B16-F10 cells [3]; TA 8 ppm (IM01-C1), α-MSH 0.1 μM 24 h then TA 24 h, relative to α-MSH control): 79.9% | Melanin Content Inhibition Ability (%) Mean (B16-F10 cells [3]; TA 11.3 ppm (IM01-C2)): 41.1% | Melanin content (%) Mean (B16-F10 cells [3]; TA 11.3 ppm (IM01-C2), α-MSH 24 h then TA 24 h): 58.9% | Melanin Content Inhibition Ability (%) Mean (B16-F10 cells [3]; TA 16 ppm (IM01-C3)): 56.8% | Melanin content (%) Mean (B16-F10 cells [3]; TA 16 ppm (IM01-C3), α-MSH 24 h then TA 24 h): 43.2% | Melanin Content Inhibition Ability (%) Mean (B16-F10 cells [3]; TA 22.6 ppm (IM01-C4)): 66.7% | Melanin content (%) Mean (B16-F10 cells [3]; TA 22.6 ppm (IM01-C4), α-MSH 24 h then TA 24 h): 33.3% | Melanin Content Inhibition Ability (%) Mean (B16-F10 cells [3]; TA 32 ppm (IM01-C5)): 74% | Melanin content (%) Mean (B16-F10 cells [3]; TA 32 ppm (IM01-C5), α-MSH 24 h then TA 24 h): 26.0% | Melanin Content Inhibition Ability (%) Mean (B16-F10 cells [3]; TA 64 ppm (IM01-C6)): 84.6% | Melanin content (%) Mean (B16-F10 cells [3]; TA 64 ppm (IM01-C6), α-MSH 24 h then TA 24 h): 15.4% | EC50 (melanin content) (B16-F10 cells [3]; α-MSH 24 h then TA 24 h): around 15.2 ppm | Melanin content (%) Mean (B16-F10 cells [1]; TA 89.19 μM (IM01-20)): 67.4% | Melanin content (%) Mean (B16-F10 cells [1]; TA 178.38 μM (IM01-40)): 43.5% | In vitro effect in reducing melanin relative to 5-[(E)-2-(4-hydroxyphenyl)ethenyl]benzene-1,3-diol and arbutin (B16-F10 cells [1]; Table 18 concentrations): better in vitro effects in reducing melanin | EC50 (B16-F10 cell line [4]; Mus musculus, B16-F10, α-MSH 24 hr + TA 24 hr, 4-256 μM, read-out: EC50 value (reduction of melanin levels induced by α-MSH)): ~41.2 µM | Melanin content (%) (B16-F10 cell line [4]; TA 4 μM, α-MSH 24 hr + TA 24 hr, Table 24): 90.2 ± 6.1% | Melanin content (%) (B16-F10 cell line [4]; TA 8 μM, Table 24): 83.2 ± 6.9% | Melanin content (%) (B16-F10 cell line [4]; TA 16 μM, Table 24): 81.8 ± 4.5% | Melanin content (%) (B16-F10 cell line [4]; TA 32 μM, Table 24): 67.7 ± 7.1% | Melanin content (%) (B16-F10 cell line [4]; TA 60 μM (/L of IM01 and HQ), HQ vehicle DDW, Table 26): 51.7 ± 2.6% | Melanin content (%) (B16-F10 cell line [4]; TA 64 μM, Table 24): 43.0 ± 4.3% | Melanin content (%) (B16-F10 cell line [4]; TA 120 μM (/H of IM01 and HQ), HQ vehicle DDW, Table 26): 37.7 ± 0.4% | Melanin content (%) (B16-F10 cell line [4]; TA 128 μM, Table 24): 36.1 ± 2.9% | Melanin content (%) (B16-F10 cell line [4]; TA 181 μM, Table 24): 34.8 ±3.5% | Melanin content (%) (B16-F10 cell line [4]; TA 256 μM, Table 24): 25.9 ± 1.5% | Melanin inhibition activity compared with arbutin (B16-F10 cell line [4]; Table 25 concentrations, FIG. 7C): much greater than arbutin | Skin color compared with UVB-c group (HRM-2 mice; IM01-ID group and IM01-Topical group, intradermal injection or smearing): whiter and brighter than that of the UVB-c group | Melanin level lower than the UVB-c group by (HRM-2 mice; IM01-ID group, intradermal, p<0.01): 33.6% | Percentage change of melanin Mean ± SD (% of UVB-c) (HRM-2 mice; IM01-ID: intradermal, 20 mg/mL, 0.5 mg/cm^2, once a week): −33.6 ± 6.0 % of UVB-c | Melanin Content Mean ± SD (% of UVB-c) (HRM-2 mice; IM01-ID: intradermal, 20 mg/mL, 0.5 mg/cm^2, once a week, three times, skin collected day 22): 66.4 ± 6.0 % of UVB-c | Melanin level lower than the UVB-c group by (HRM-2 mice; IM01-Topical group, p<0.05): 30.6% | Percentage change of melanin Mean ± SD (% of UVB-c) (HRM-2 mice; IM01-Topical: 20 mg/mL, 0.4-0.5 mg/cm^2, once a day): −30.6 ± 7.6 % of UVB-c | Melanin Content Mean ± SD (% of UVB-c) (HRM-2 mice; IM01-Topical: 20 mg/mL, 0.4-0.5 mg/cm^2, once a day for 21 days, day 22): 69.4 ± 7.6 % of UVB-c | Effect in reducing melanin compared with Arbutin (450 μM or 900 μM) and hydroquinone (120 μM) (B16-F10 cells [5]; 120 μM): better than that of the whitening agent Arbutin | Melanin content compared with vehicle group (no α-MSH induction) (B16-F10 cells [5]; 120 μM): even lower than that of the vehicle group | Melanin content (%) Mean ± SD (B16-F10 cells [5]; TA 30 μM, α-MSH 24 hr + TA 24 hr, Table 22 experiment): 84.6 ± 3.6% | Melanin content (%) Mean ± SD (B16-F10 cells [5]; TA 60 μM, Table 22 experiment): 52.8 ± 3.8% | Melanin content (%) Mean ± SD (B16-F10 cells [5]; TA 60 μM, α-MSH 24 hr + TA 24 hr, Table 21 experiment): 47.6 ± 3.4% | Melanin content (%) Mean ± SD (B16-F10 cells [5]; TA 120 μM, Table 21 experiment): 26.2 ± 2.4% | Melanin content (%) Mean ± SD (B16-F10 cells [5]; TA 120 μM, Table 22 experiment): 33.9 ± 1.4% | Melanin content (%) Mean ± SD (B16-F10 cells [5]; TA 180 μM, Table 22 experiment): 11.7 ± 2.3%
